This is an account of results in patent publication US20120294808A1, “Fluorescent Analogs of Neurotransmitters, Compositions Containing the Same and Methods of Using the Same” (UNIVERSITY OF MIAMI, priority 2009, published 2012).

Data set [1] deals with Mixed cell cultures of neurons and astroglia isolated from the brain stems of E14 chick embryos. As to the kind of experiment: Microwell plate reader cellular uptake assay, with and without clomipramine (SRI) pretreatment. As to conditions: for emission response (cellular uptake): λex=355 nm, λem=444 nm, versus controls A and B; for effect of Clomipramine pretreatment on uptake: pre-treatment with Clomipramine, a serotonin reuptake inhibitor. The format is cell-based. The source says:
Mixed cell cultures of neurons and astroglia isolated from the brain stems of E14 chick embryos were exposed to solutions of 1-4. Serotonergic cells are clustered in the raphe nucleus (RN) located along the midline of the brain stem; they project into other regions of the brain including the hypothalamus, the olfactory bulb, cortex and cerebellum. […] The inherent fluorescence of the carbostyril core enabled direct detection of their cellular uptake utilizing a microwell plate reader (λex=355 nm, λem=444 nm).
It was believed that several modes of interaction are possible between the fluorescent probes and the cultured cells including specific interactions such as active transport via neurotransmitter transporters, or binding to neurotransmitter receptors, as well as non-specific interactions such as insertion into the cell membrane.

The nature of data set [2]: Optical properties (absorption and emission spectra) of carbostyril probes 1-4. The format is physicochemical. As to conditions: for small additional emission peak: acidic solutions, protonated form. The source says: The optical properties of 1-4 were investigated in order to determine their suitability as fluorescent probes. Absorption spectra were obtained in neutral, acidic and basic solutions. […] Addition of acetic acid effected a hypsochromic shift (λmax=335 nm); the addition of triethylamine results in pronounced bathchromic (λmax=370 nm) and hyperchromic shifts. The linear combination of the absorption spectra with excess acid and excess base nearly perfectly overlaps with the spectrum obtained at pH 7.2 (FIG. 1). Therefore, it was determined that at near neutral pH (between approximately 6.5-7.5pH), both protonated and unprotonated species exist at roughly equal concentrations.
Thus, it was determined that in neutral and basic solutions, 1-4 emit from a deprotonated excited state species. Emission in acidic solutions is dominated by the deprotonated species as well. In the case of 3 and 4 a small peak at 380 nm was observed, which is likely due to photoemission from the protonated form of these molecules. While 5HT itself is fluorescent, single photon excitation of 5HT requires specialized optics and a UV excitation source (λmax,abs=277 nm). Furthermore, the autofluorescence of biological samples is also quite high in the UV region. The longer wavelength absorption of 1-4 allows selective photoexcitation of these fluorophores in the presence of aromatic amino acid residues and nucleobases.

The subject of data set [3] is Neurons and astroglia isolated from E14 chick brainstems. The data set can be described thus: Live confocal imaging of cultured cells exposed to probe (405 nm excitation). The format is cell-based. Here is the method: In other words, whether the probe localized to the cell membrane, implying binding to transporters or receptors, or whether the probe was internalized, implying active transport into the cytosol. Neurons and astroglia isolated from E14 chick brainstems were grown on poly-L-lysine and laminin treated coverslips affixed to 35 mm culture dishes enabling live imaging of the cells in culture media. […] Cells were exposed to the probe solution for one minute, the media was then changed and additional images were captured. […] During the course of the imaging experiments, some photobleaching was observed.

Data set [4] deals with dissociated e19 chick brain cells. As to the kind of experiment: Example 4 uptake in brain cells (microwell plate assay and/or live cell confocal imaging, 405 nm laser). It counts as cell-based. The following applies: 10 μM to 100 μM; absence of monoamine reuptake inhibitors. Here is the method: Stock solutions of the compounds shown below (UM001-UM005, 8, 9 & 12A from Example 2) were used to produce compositions with final concentrations ranging from 10 μM to 100 μM. The compositions were then contacted with dissociated e19 chick brain cells, irradiated with a 405 nm laser, and imaged using confocal microscopy.

Data set [5] relates to live brainstem and cerebellum sections from e19 chicks. The data set can be described thus: Confocal imaging of live brain explant sections, with and without desipramine. The arrangement: species or system chick. The following applies: for distribution in live brain sections: 405 nm excitation, cerebellum and brainstem. The text has this:
This distribution is consistent with the behavior of these probes towards MAT-expressing HEK293 cells. The wider distribution of 13A may be due to binding to multiple transporter types, wh[…] may be limited to NET or DAT expressing catecholaminergic cells. […] Image overlays from 100 μm sagittal (FIG. 8A) and transverse (FIG. 8B) sections reveal that both probes are associated with cells of chick mesencephalon and metencephalon. The fluorophores were excited by laser at 405 nm. […] The scale bars for FIG. 8 are as follows: 8A & 8B=100 μm; C & D=10 μm; and E & F=50 μm).

The target of a further data set is T1, hSERT (Homo sapiens, UniProt P31645).
T1 construct: expressed in transfected cells
T1 sequence (P31645 whole entry): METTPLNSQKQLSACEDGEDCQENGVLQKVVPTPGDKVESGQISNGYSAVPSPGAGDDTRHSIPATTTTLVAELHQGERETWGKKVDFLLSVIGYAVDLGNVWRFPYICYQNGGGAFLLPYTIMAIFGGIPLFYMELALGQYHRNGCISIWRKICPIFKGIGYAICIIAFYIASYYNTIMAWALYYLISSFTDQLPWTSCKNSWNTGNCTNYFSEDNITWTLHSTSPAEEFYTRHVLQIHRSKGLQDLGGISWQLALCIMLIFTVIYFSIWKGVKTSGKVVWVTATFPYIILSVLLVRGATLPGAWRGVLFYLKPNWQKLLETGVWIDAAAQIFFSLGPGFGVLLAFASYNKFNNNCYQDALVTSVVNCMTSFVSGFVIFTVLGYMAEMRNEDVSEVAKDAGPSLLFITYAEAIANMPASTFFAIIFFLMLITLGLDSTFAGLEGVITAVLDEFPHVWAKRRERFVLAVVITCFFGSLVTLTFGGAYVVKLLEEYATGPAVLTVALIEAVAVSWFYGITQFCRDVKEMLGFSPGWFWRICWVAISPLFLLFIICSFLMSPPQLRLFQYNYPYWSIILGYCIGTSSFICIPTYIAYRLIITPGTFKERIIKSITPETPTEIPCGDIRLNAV
The data set can be described thus: Time-lapse confocal fluorescence microscopy of transporter-expressing HEK-293 cells (hSERT). The format is cell-based. The following applies: HEK-293 hSERT, 10 μM to 100 μM, images at 10 sec intervals. The source says: (§1) HEK-293 cells stably expressing hDAT, hNET and hSERT were provided by Prof. R. Blakely (See, e.g., J. W. Schwartz, R. D. Blakely and L. J. DeFelice, J. Biol. Chem., 2003, 278, 9768.) and cultured on 35 mm dishes with a coverslip imaging window for confocal microscopy. […] Laser intensity and gain were not altered for subsequent images captured at 10 sec intervals. Representative images are shown in FIG. 7 together with intensity profiles captured from cell bodies.

The target in the next data set is T2, hNET (Homo sapiens, UniProt P23975).
T2 construct: expressed in transfected cells
T2 sequence (P23975 whole entry): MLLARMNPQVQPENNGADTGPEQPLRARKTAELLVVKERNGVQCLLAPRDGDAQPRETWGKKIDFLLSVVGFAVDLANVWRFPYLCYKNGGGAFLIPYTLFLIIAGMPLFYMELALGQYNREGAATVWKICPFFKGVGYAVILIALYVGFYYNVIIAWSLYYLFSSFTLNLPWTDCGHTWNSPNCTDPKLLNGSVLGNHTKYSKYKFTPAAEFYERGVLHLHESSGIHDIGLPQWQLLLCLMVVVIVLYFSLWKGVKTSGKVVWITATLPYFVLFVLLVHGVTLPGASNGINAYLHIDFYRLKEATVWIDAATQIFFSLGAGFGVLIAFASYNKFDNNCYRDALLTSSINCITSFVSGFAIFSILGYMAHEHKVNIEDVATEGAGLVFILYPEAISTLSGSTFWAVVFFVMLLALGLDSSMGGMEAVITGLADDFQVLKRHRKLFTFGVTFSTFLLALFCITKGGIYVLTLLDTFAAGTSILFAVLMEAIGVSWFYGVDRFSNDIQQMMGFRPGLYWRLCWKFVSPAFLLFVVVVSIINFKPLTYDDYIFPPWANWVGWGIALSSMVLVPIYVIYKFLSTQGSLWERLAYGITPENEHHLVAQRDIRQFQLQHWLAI
The data set can be described thus: Time-lapse confocal fluorescence microscopy of transporter-expressing HEK-293 cells (hNET). The format is cell-based. The following applies: HEK-293 hNET, 10 μM to 100 μM, images at 10 sec intervals.
From the text: as §1

The nature of data set [6]: Solubility of probes 1-4 in methanol and PBS. It counts as physicochemical. As to conditions: phosphate-buffered saline (PBS), aqueous buffer; read-out: concentration at which soluble in PBS. The text has this:
The synthesis of analogs 2-4 followed a similar route: reaction of 5 with chloroethylamine followed by deprotection of the 6-hydroxy group produced 2; 3 and 4 resulted from reaction of 5 with bromoethanol and bromopropylbenzene respectively. In all cases the N-linked isomer was isolated.

Data set [7] is described as follows: Optical spectroscopy (UV-vis and fluorescence) of the stilbazolium emitter library. It counts as physicochemical. On the procedure: UV-vis spectroscopy was conducted to evaluate the absorption and emission spectra for each of the thirty-two emitters.
Data set [8] relates to dissociated e19 chick brain cells. The data set can be described thus: 96-microwell plate uptake screen, with and without indatraline pretreatment. The format is cell-based. As to conditions: pretreated with indatraline, a monoamine reuptake inhibitor.
Experimental: The native fluorescence of the emitters enables direct detection of their uptake in dissociated e19 chick brain cells in a convenient 96-microwell plate format. This method enables screening for activity against multiple cell types and transporters including MATs and OCTs without the use of radioactive compounds. Solutions of 11A-18D were added to cell culture media to produce an emitter concentration of 100 μM. The incubation time used was 10 min. The fluorphore solution was removed, fresh media added and the plate immediately analyzed by microwell plate reader. Given the broad range of absorption and emission wavelengths, excitation varied from 355 nm to 500 nm with emission collected at +100 nm to +150 nm.
From this initial assay, it was possible to determine whether a compound associates with the cultured cells; however, it was not clear whether a particular compound was actively transported into cells or simply interacts with the cell membrane. The monoamine transporter (MAT) reuptake inhibitor, indatraline, was utilized to provide some insight into what mechanisms of cellular uptake are at play. Dissociated brain cells were pretreated with indatraline followed by each of the twelve emitters identified from the results shown in FIG. 5.
Data set [9] relates to monoamine oxidases (MAOs). The data set can be described thus: Conversion of profluorescent HNETP to HNEP+ in cell culture. The format is cell-based. The text has this:
In addition, it has been discovered that reduction of HNEP+ (UM006) results in the formation of HNETP (UM007). This provides a profluorescent option for screening pharmaceutical targets in vivo, which allows for the assessment of bioavailability of compounds in model organisms. In particular, the long wavelength absorption and emission of HNEP+ are not present in HNETP due to the loss of conjugation and the cationic pyridinium functionality. […] This reflects two distinct processes: accumulation of HNETP in the cells and the metabolism of HNETP to HNEP+ by MAOs. Inhibitors of MAO are important for several diseases including Parkinsons Disease as well as hypertensive disorders.

The next data set addresses T3, hDAT (Homo sapiens, UniProt Q01959).
T3 construct: expressed in transfected cells
The data set can be described thus: Time-lapse confocal fluorescence microscopy of transporter-expressing HEK-293 cells (hDAT). As to conditions: HEK-293 hDAT, 10 μM to 100 μM, images at 10 sec intervals. The format is cell-based.
From the text: as §1

“And” between values parts separate entries of the source, which are not always exact repeats. Identical values can stand only once. “Also recorded” adds a separate entry of the source. Where only a bound is given, the exact number is not on record here.

T3 sequence (Q01959 whole entry): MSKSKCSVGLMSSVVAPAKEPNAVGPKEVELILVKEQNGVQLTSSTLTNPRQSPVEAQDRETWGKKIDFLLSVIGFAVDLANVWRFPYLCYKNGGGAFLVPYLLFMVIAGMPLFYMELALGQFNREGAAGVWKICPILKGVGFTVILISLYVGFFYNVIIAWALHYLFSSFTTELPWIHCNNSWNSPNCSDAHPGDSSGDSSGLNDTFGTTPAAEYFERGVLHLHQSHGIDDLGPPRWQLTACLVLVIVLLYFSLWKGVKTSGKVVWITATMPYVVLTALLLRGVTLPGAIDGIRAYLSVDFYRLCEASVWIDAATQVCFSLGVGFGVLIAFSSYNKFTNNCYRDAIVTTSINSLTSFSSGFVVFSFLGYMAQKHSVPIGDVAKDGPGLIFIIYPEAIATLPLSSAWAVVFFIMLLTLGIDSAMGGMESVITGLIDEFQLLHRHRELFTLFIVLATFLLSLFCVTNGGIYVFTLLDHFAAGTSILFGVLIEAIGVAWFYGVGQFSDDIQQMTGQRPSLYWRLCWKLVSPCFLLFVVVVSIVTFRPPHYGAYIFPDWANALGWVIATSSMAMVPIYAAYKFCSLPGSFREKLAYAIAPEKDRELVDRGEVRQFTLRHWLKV

Take `O=c1cc(C(F)(F)F)c2ccc(O)cc2n1CCO` [Compound 3]: the “emission response (cellular uptake)” value in data set [1] is on record as “did not differ significantly from the controls”. Besides, the “small additional emission peak” value in data set [2] is reported as 380 nm.

Take `NCCn1c(=O)cc(C(F)(F)F)c2ccc(O)cc21` [Compound 1]: in data set [1], the “effect of Clomipramine pretreatment on uptake” value was “significantly reduced” and the “emission response (cellular uptake)” value is on record as “high emission response”. In data set [3] (one minute exposure, 405 nm excitation), the “cell binding / illumination” value is “bound to and illuminated most healthy cells”. For the same molecule, the photostability during imaging entry in data set [3] (without antifade reagents) is reported as “sufficiently stable to capture multiple images over 10 mins”. Also, the “subcellular localization of probe” value in data set [3] (z-stacks, one minute exposure) is “localized internally after only one minute of exposure; also recorded: localized to the interior of both astroglia and neurons”.

With `CN(C)CCN1C(=O)c2cccc3c(N)ccc(c23)C1=O` [Compound 9], the “uptake in dissociated chick brain cells” value in data set [4] is reported as “little or no uptake”.

For the molecule `CN(C)CCn1c(=O)cc(C(F)(F)F)c2ccc(O)cc21` [Compound 2], the “emission response (cellular uptake)” value in data set [1] is listed as “did not differ significantly from the controls”.

Consider `C[n+]1ccc(/C=C/c2ccc3cc(O)ccc3c2)cc1` [Compound 14A, (E)-4-[2-(6-hydroxy-2-naphthalenyl)ethenyl]-1-methyl-pyridinium iodide], for which, in data set [5], the “distribution in live brain sections” value was “appears in distinct cell groupings along the cerebellar gyri and around the midline of the brainstem”. Also, the “effect of desipramine pretreatment on accumulation” value in data set [5] (pretreatment with desipramine, a norepinephrine reuptake inhibitor) is given as “limited the accumulation”. Besides, the “accumulation / transport in cells expressing SERT” value on hSERT was “does not differ substantially from the control untransfected HEK cells”. On hNET, the “accumulation / transport in cells expressing NET” value is reported as “preferentially accumulates in cells expressing NET; also recorded: rapidly accumulated”.

In the case of `O=c1cc(C(F)(F)F)c2ccc(O)cc2n1CCCc1ccccc1` [Compound 4], in [1], the “effect of Clomipramine pretreatment on uptake” value is reported as “significantly reduced” and the “emission response (cellular uptake)” value is on record as “to a lesser extent”. The solubility in data set [6] was < 50 µM. For the same molecule, in data set [2], the “small additional emission peak” value turned out to be 380 nm.

For the molecule `COc1ccc(/C=C/c2cc[n+](C)cc2)cc1` [Compound 12A], in data set [7] (10 μM solutions), the absorption maxima is given as 358 nm; the emission maxima is 475 nm and 490 nm. Moreover, the “emission response after indatraline pretreatment” value in [8] is on record as “maintained high responses even after indatraline pretreatment”. Also, the “uptake in dissociated chick brain cells” value in [4] was “accumulated”.

For the molecule `CN1CC=C(/C=C/c2ccc3cc(O)ccc3c2)CC1` [HNETP], the “metabolic conversion by MAOs” value in [9] is “convert HNETP to HNEP+ in cell culture”.

`C[n+]1ccc(/C=C/c2ccc3ccccc3c2)cc1.[I-]` [Compound 13A, (E)-1-Methyl-4-[2-(2-naphthalenyl)ethenyl]-pyridinium iodide]: the “accumulation / transport in cells expressing DAT” value at hDAT is recorded as “did not accumulate; also recorded: does not appear to be transported”. Moreover, the “overall brightness (ε·Φem)” value in data set [7] (versus acridine orange, Hoescht 33258 and DAPI) is on record as “compares favorably”. Besides, the “distribution in live brain sections” value in data set [5] is “widely distributed in both the cerebellum and pons”. For the same molecule, the “emission response after indatraline pretreatment” value in data set [8] was “affected by indatraline pretreatment”. Moreover, at hSERT, the “accumulation / transport in cells expressing SERT” value is “did not accumulate; also recorded: does not appear to be transported”. In addition, the “accumulation / transport in cells expressing NET” value on hNET is on record as “did not accumulate; also recorded: does not appear to be transported”.

As for `NCCc1c[nH]c2ccc(O)cc12` [Compound 5HT, 5-hydroxytryptamine, reference compound], the “λmax,abs” value in [2] (5HT comparison) was found to be 277 nm.

As to `CN(C)CCn1c(=O)cc(C(F)(F)F)c2ccc(O)cc21` [Compound 8], the “uptake in dissociated chick brain cells” value in data set [4] was “little or no uptake”.
